Experiments:
all weeds = assay: Herbicidal activity, phosphate-free cyanamide and propionic acid, post-emergence, uncovered pots; format: in vivo; settings: for Weeds Per Pot: All Weeds: cyanamide 150 mg/kg soil
Text: (§1) The procedures in this example differed from those of Example 2, however, by the use of hydrogen cyanamide crystals free of phosphate ion to prepare the aqueous hydrogen cyanamide solution, by the use of post-emergence application, and by the omission of any covering of the pots during any part of the test. Observations were made for total weed growth, and individual observations were also made for yellow nutsedge, crabgrass, sicklepod, and momingglory. Stock solutions of hydrogen cyanamide at 1.25% by weight and propionic acid at 5.0% by weight, both in water, were prepared as before, except that the hydrogen cyanamide solution, as noted above, was prepared by dissolving hydrogen cyanamide crystals in water in the absence of phosphate ion. […] The weeds were allowed to grow for three weeks before the treatment chemicals were applied. […] Data analyses were performed in the same manner as Examples 1 and 2. Table IX lists the results in weeds per pot for all weeds, Table X for yellow nutsedge, Table XI for crabgrass, Table XII for sicklepod, and Table XIII for morningglory, all both with propionic acid alone at various application […]

crabgrass = assay: as above; format: in vivo, Digitaria sanguinalis; settings: for Weeds Per Pot: Crabgrass: cyanamide 150 mg/kg soil
Text: as §1

yellow nutsedge = assay: as above; format: in vivo, Cyperus esculentus; settings: for Weeds Per Pot: Yellow Nutsedge: cyanamide 150 mg/kg soil
Text: as §1

Hutcheson soybean = assay: Crop (soybean) conditions after soil treatment; format: in vivo; settings: 57 d after treatment; for Number of Plants/Pot: 5 seeds/pot
Description: In this study, the soil was naturally infested with four species of nematodes, two of which were deleterious and two beneficial, and observations were made of both the nematode survival and the growth of the soybean plants. Stock solutions of hydrogen cyanamide at 1.0% by weight and propionic acid at 5.0% by weight, both in water, were prepared, the hydrogen cyanamide from a phosphate-buffered 50% aqueous solution. Planting pots measuring 10 cm in diameter, each containing 1 kg of soil, were used. […] The resulting plants were then removed from the pots, the root systems were washed, and the number of plants in each pot was determined. The weights of both fresh shoots and roots were also determined as well as the shoot height and the relative health of the root system, using a subjective index. Soil samples were also collected, and the soil and roots were incubated to determine nematode populations. Treatments were arranged in randomized complete block design with seven replications per treatment, and statistical evaluation of the data was performed with analyses of variance (ANOVA) and standard regression procedures. Fischer's Least Significant Difference at p 0.05 was calculated when appropriate. The results of these tests are listed as final test results in Tables II, III, and IV, with nematode populations in the soil listed in Table II, the nematode populations in the root systems in Table III, and the plant and root parameters of the soybean shoots in Table IV.

spiral nematodes = assay: Nematicidal activity in covered pots of naturally infested silt loam, soybean planted after 12 days; format: in vivo, Helicotylenchus dihystera
Description: In this study, the soil was naturally infested with four species of nematodes, two of which were deleterious and two beneficial, and observations were made of both the nematode survival and the growth of the soybean plants.
Stock solutions of hydrogen cyanamide at 1.0% by weight and propionic acid at 5.0% by weight, both in water, were prepared, the hydrogen cyanamide from a phosphate-buffered 50% aqueous solution. Planting pots measuring 10 cm in diameter, each containing 1 kg of soil, were used. The soil was silt loam from a cotton field, pH 6.2, CEC<10 meq/100 g soil, organic matter<1.0%. The treatment chemicals were combined in various dilutions such that 100 mL of the combined dilutions contained the desired amount of each chemical for each test. The combined dilutions were then applied to the soil surface in each pot, at 100 mL of combined dilution per pot. The dilutions were selected to achieve target application rates expressed in milligrams of the treatment chemical per kilogram of soil, with 1 milligram of treatment chemical per kilogram of soil being approximately equal to 2 kilograms of the chemical per hectare of soil or 2 pounds of the chemical per acre of soil.
Immediately after the treatment chemicals were applied, each pot was covered by a thick (1.5 mil), clear, low-density polyethylene bag. After twelve days, the bags were removed and soil samples were taken from each pot for nematological analysis by the salad bowl technique of Rodriguez-Kabana, R., and M. H. Pope, Nematropica, 11: 175-186 (1981). The results of these analyses are listed in Table I as pre-plant test results. The results for the two deleterious nematodes are also shown as plots of the number of nematodes vs. the hydrogen cyanamide application rate in FIGS. 1 and 2.
After the polyethylene bags were removed, each pot was planted with Hutcheson soybean seeds at 5 seeds per pot, and the seeds were allowed to germinate and the plants to grow for 45 days. The resulting plants were then removed from the pots, the root systems were washed, and the number of plants in each pot was determined. The weights of both fresh shoots and roots were also determined as well as the shoot height and the relative health of the root system, using a subjective index. Soil samples were also collected, and the soil and roots were incubated to determine nematode populations. Treatments were arranged in randomized complete block design with seven replications per treatment, and statistical evaluation of the data was performed with analyses of variance (ANOVA) and standard regression procedures. Fischer's Least Significant Difference at p 0.05 was calculated when appropriate. The results of these tests are listed as final test results in Tables II, III, and IV, with nematode populations in the soil listed in Table II, the nematode populations in the root systems in Table III, and the plant and root parameters of the soybean shoots in Table IV.

[1] = hydrogen cyanamide 125 mg/kg of soil alone, all intervals

For `N#CN` [Cyanamide, hydrogen cyanamide], the “Weeds Per Pot: All Weeds” value (all weeds; 6 d after treatment) was 6.3, the “Weeds Per Pot: All Weeds” value (all weeds; 13 d after treatment) was 7.7 and the “Weeds Per Pot: All Weeds” value (all weeds; 20 d after treatment) was 10.1. For the same molecule, the “Total weeds per pot” value (all weeds; [1]) was “less than ten total weeds per pot”, the “Weeds Per Pot: Crabgrass” value (crabgrass; 6 d after treatment) was 0 and the “Weeds Per Pot: Crabgrass” value (crabgrass; 13 d after treatment) was 0.4. The “Weeds Per Pot: Crabgrass” value (crabgrass; 20 d after treatment) was 0.3, the “Crabgrass weeds per pot” value (crabgrass; [1]) was “about one or fewer crabgrass weeds per pot” and the “Weeds Per Pot: Yellow Nutsedge” value (yellow nutsedge; 6 d after treatment) was 2.4. The “Weeds Per Pot: Yellow Nutsedge” value (yellow nutsedge; 13 d after treatment) was 4.6, the “Weeds Per Pot: Yellow Nutsedge” value (yellow nutsedge; 20 d after treatment) was 6 and the “Yellow nutsedge weeds per pot” value (yellow nutsedge; [1]) was “about six or fewer yellow nutsedge weeds per pot”. The “Number of Plants/Pot” value (Hutcheson soybean; cyanamide 20 mg/kg soil) was 4, the “Number of Plants/Pot” value (Hutcheson soybean; cyanamide 40 mg/kg soil) was 3.9 and the “Number of Plants/Pot” value (Hutcheson soybean; cyanamide 60 mg/kg soil) was 4.7. For the same molecule, the “Number of Plants/Pot” value (Hutcheson soybean; cyanamide 80 mg/kg soil) was 4.4, the “Number of Plants/Pot” value (Hutcheson soybean; cyanamide 120 mg/kg soil) was 4.9 and the “Fresh Shoot Weight” value (Hutcheson soybean; cyanamide 20 mg/kg soil) was 21.7 g. The “Root Condition Index” value (Hutcheson soybean; cyanamide 20 mg/kg soil) was 1.6, the “Shoot Height” value (Hutcheson soybean; cyanamide 20 mg/kg soil) was 26.4 cm and the “Fresh Shoot Weight” value (Hutcheson soybean; cyanamide 40 mg/kg soil) was 20.5 g. The “Root Condition Index” value (Hutcheson soybean; cyanamide 40 mg/kg soil) was 1.4, the “Shoot Height” value (Hutcheson soybean; cyanamide 40 mg/kg soil) was 26.5 cm and the “Fresh Shoot Weight” value (Hutcheson soybean; cyanamide 60 mg/kg soil) was 25.5 g. The “Root Condition Index” value (Hutcheson soybean; cyanamide 60 mg/kg soil) was 1.1, the “Shoot Height” value (Hutcheson soybean; cyanamide 60 mg/kg soil) was 27 cm and the “Fresh Shoot Weight” value (Hutcheson soybean; cyanamide 80 mg/kg soil) was 24.95 g. The “Root Condition Index” value (Hutcheson soybean; cyanamide 80 mg/kg soil) was 1.1, the “Shoot Height” value (Hutcheson soybean; cyanamide 80 mg/kg soil) was 27.1 cm and the “Fresh Shoot Weight” value (Hutcheson soybean; cyanamide 120 mg/kg soil) was 29.4 g. For the same molecule, the “Root Condition Index” value (Hutcheson soybean; cyanamide 120 mg/kg soil) was 1.3, the “Shoot Height” value (Hutcheson soybean; cyanamide 120 mg/kg soil) was 28.7 cm and the “Surviving Nematodes: Spiral” value (spiral nematodes; 12 d after treatment, pre-plant, cyanamide 20 mg/kg soil) was 102 per 100 mL of soil. The “Surviving Nematodes: Spiral” value (spiral nematodes; 12 d after treatment, pre-plant, cyanamide 40 mg/kg soil) was 95 per 100 mL of soil, the “Surviving Nematodes: Spiral” value (spiral nematodes; 12 d after treatment, pre-plant, cyanamide 60 mg/kg soil) was 59 per 100 mL of soil and the “Surviving Nematodes: Spiral” value (spiral nematodes; 12 d after treatment, pre-plant, cyanamide 80 mg/kg soil) was 76 per 100 mL of soil. For the same molecule, the “Surviving Nematodes: Spiral” value (spiral nematodes; 12 d after treatment, pre-plant, cyanamide 120 mg/kg soil) was 18 per 100 mL of soil, the “Surviving Nematodes: Spiral” value (spiral nematodes; 57 d after treatment, 45 d after planting, cyanamide 20 mg/kg soil) was 6.7 per 100 mL of soil and the “Surviving Nematodes: Spiral” value (spiral nematodes; 57 d after treatment, 45 d after planting, cyanamide 40 mg/kg soil) was 3.7 per 100 mL of soil. The “Surviving Nematodes: Spiral” value (spiral nematodes; 57 d after treatment, 45 d after planting, cyanamide 60 mg/kg soil) was 2.9 per 100 mL of soil, the “Surviving Nematodes: Spiral” value (spiral nematodes; 57 d after treatment, 45 d after planting, cyanamide 80 mg/kg soil) was 9.8 per 100 mL of soil and the “Surviving Nematodes: Spiral” value (spiral nematodes; 57 d after treatment, 45 d after planting, cyanamide 120 mg/kg soil) was 4.7 per 100 mL of soil. The “Surviving Nematodes in Root System: Spiral” value (spiral nematodes; 57 d after treatment, cyanamide 20 mg/kg soil) was 42.3 Per Pot, the “Surviving Nematodes in Root System: Spiral” value (spiral nematodes; 57 d after treatment, cyanamide 40 mg/kg soil) was 38.6 Per Pot and the “Surviving Nematodes in Root System: Spiral” value (spiral nematodes; 57 d after treatment, cyanamide 60 mg/kg soil) was 42 Per Pot. The “Surviving Nematodes in Root System: Spiral” value (spiral nematodes; 57 d after treatment, cyanamide 80 mg/kg soil) was 28 Per Pot and the “Surviving Nematodes in Root System: Spiral” value (spiral nematodes; 57 d after treatment, cyanamide 120 mg/kg soil) was 16 Per Pot.
